This data set concerns the target T1, hERG channel (Homo sapiens, UniProt Q12809).
T1 construct: expressed in transfected cells; host or cells: CHO (hERG-CHO), under Geneticin selection
Briefly: hERG channel inhibition, automated patch clamp (IonWorks HT, hERG-CHO). In kind it is cell-based. The note with it: CHO cells expressing hERG, 600 s incubation; for inhibition at 600 s, 1 µM: 1 μM compound, read-out: hERG Channel Inhibition % (at 1 μM), vehicle-subtracted values; for inhibition at 600 s, 10 µM: 10 μM compound, read-out: hERG Channel Inhibition % (at 10 μM), vehicle-subtracted values. In a few lines: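 hERG-CHO cells held at 30 °C for 48 h before IonWorks HT patch clamp: from −80 mV to +40 for 2 s, then −50 mV for 2 s tail, repeated three times, before and after 600 s compound exposure. Third-pulse post/pre tail amplitude ratio gave percent inhibition; cells with seal <50 MOhm or tail <250 pA excluded.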
In general terms: hERG is a cardiac potassium channel; its block is linked to QT prolongation.

T1 sequence (Q12809 whole entry): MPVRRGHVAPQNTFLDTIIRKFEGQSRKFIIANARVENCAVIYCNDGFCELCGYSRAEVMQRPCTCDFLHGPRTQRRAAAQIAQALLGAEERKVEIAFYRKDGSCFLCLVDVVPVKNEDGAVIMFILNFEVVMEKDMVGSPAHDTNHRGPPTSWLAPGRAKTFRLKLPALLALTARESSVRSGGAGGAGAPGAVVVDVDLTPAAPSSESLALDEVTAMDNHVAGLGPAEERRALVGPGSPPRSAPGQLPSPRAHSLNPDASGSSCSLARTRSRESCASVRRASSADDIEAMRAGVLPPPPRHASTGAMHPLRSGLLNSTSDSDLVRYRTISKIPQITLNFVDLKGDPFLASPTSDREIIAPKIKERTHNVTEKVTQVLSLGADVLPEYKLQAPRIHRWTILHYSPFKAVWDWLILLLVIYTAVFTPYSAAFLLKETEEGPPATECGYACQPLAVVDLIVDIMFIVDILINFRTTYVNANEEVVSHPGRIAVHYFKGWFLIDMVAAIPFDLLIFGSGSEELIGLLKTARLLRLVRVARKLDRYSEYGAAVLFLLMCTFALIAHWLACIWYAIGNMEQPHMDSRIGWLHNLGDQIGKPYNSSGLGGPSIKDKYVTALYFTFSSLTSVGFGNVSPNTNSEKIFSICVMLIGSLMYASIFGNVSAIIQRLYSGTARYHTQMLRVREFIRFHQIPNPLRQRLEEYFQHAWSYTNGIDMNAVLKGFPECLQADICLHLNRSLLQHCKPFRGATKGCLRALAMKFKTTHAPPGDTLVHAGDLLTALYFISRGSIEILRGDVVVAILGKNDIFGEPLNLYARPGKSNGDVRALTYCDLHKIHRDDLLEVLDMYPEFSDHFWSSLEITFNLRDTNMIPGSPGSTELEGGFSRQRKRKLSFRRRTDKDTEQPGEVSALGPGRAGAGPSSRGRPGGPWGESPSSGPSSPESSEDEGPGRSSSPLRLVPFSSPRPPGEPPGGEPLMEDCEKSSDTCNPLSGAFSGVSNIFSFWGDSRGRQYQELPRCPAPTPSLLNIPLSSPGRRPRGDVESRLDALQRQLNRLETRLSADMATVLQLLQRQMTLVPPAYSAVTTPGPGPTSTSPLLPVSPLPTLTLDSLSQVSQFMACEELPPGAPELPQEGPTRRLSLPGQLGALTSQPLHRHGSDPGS

As for `COc1cc(NC(=O)C(=O)c2c(C)n(Cc3ccc(Cl)cc3Cl)c3cc(F)c(OC)cc23)ccn1` [Compound 92, 2-(1-(2,4-dichlorobenzyl)-6-fluoro-5-methoxy-2-methyl-1H-indol-3-yl)-N-(2-methoxypyridin-4-yl)-2-oxoacetamide], the inhibition at 600 s, 1 µM was < 25% and the inhibition at 600 s, 10 µM was < 25%.

Consider `COc1ccc2c(c1)c(C(=O)C(=O)Nc1ccnc(OC)c1)c(C)n2Cc1ncc(Cl)cc1Cl` [Compound 82, 2-(1-((3,5-dichloropyridin-2-yl)methyl)-5-methoxy-2-methyl-1H-indol-3-yl)-N-(2-methoxypyridin-4-yl)-2-oxoacetamide], for which the inhibition at 600 s, 1 µM is < 25% and the inhibition at 600 s, 10 µM is < 25%.

Consider `COc1cc(NC(=O)C(=O)c2c(C)n(Cc3ccc(Cl)cc3)c3cc(OC)c(Cl)cc23)ccn1` [Compound 80, 2-(5-chloro-1-(4-chlorobenzyl)-6-methoxy-2-methyl-1H-indol-3-yl)-N-(2-methoxypyridin-4-yl)-2-oxoacetamide], for which the inhibition at 600 s, 1 µM is < 25% and the inhibition at 600 s, 10 µM is < 25%.

For `COc1cc(NC(=O)C(=O)c2c(C)n(Cc3ccc(Cl)cc3)c3cc(F)c(C)cc23)ccn1` [Compound 89, 2-(1-(4-chlorobenzyl)-6-fluoro-2,5-dimethyl-1H-indol-3-yl)-N-(2-methoxypyridin-4-yl)-2-oxoacetamide], the inhibition at 600 s, 1 µM was < 25% and the inhibition at 600 s, 10 µM was < 25%.

Consider `COc1cc(NC(=O)C(=O)c2c(C)n(Cc3ccc(F)cn3)c3ccc(C)cc23)ccn1` [Compound 85, 2-(1-((5-fluoropyridin-2-yl)methyl)-2,5-dimethyl-1H-indol-3-yl)-N-(2-methoxypyridin-4-yl)-2-oxoacetamide], for which the inhibition at 600 s, 1 µM was < 25% and the inhibition at 600 s, 10 µM was in the range of 25 to 50%.

Turning to `COc1cc(NC(=O)C(=O)c2c(C)n(Cc3ccc(Cl)cc3)c3cc(Cl)c(C)cc23)ccn1` [Compound 93, 2-(6-chloro-1-(4-chlorobenzyl)-2,5-dimethyl-1H-indol-3-yl)-N-(2-methoxypyridin-4-yl)-2-oxoacetamide], the inhibition at 600 s, 1 µM is < 25% and the inhibition at 600 s, 10 µM was < 25%.

Take `COc1ccc2c(c1)c(C(=O)C(=O)Nc1ccnc(OC)c1)c(C)n2Cc1ncc(F)cc1F` [Compound 81, 2-(1-((3,5-difluoropyridin-2-yl)methyl)-5-methoxy-2-methyl-1H-indol-3-yl)-N-(2-methoxypyridin-4-yl)-2-oxoacetamide]: the inhibition at 600 s, 1 µM was < 25% and the inhibition at 600 s, 10 µM was < 25%.

In the case of `COc1cc(NC(=O)C(=O)c2c(C)n(Cc3ccc(Cl)cc3)c3cccnc23)ccn1` [Compound 3, 2-(1-(4-chlorobenzyl)-2-methyl-1H-pyrrolo[3,2-b]pyridin-3-yl)-N-(2-methoxypyridin-4-yl)-2-oxoacetamide], the inhibition at 600 s, 1 µM is < 25% and the inhibition at 600 s, 10 µM was in the range of 25 to 50%.

On to `COc1ccc2c(c1)c(C(=O)C(=O)Nc1ccnc(OC)c1)c(C)n2Cc1ncc(Cl)cc1F` [Compound 87, 2-(1-((5-chloro-3-fluoropyridin-2-yl)methyl)-5-methoxy-2-methyl-1H-indol-3-yl)-N-(2-methoxypyridin-4-yl)-2-oxoacetamide], for which the inhibition at 600 s, 1 µM is < 25% and the inhibition at 600 s, 10 µM is < 25%.

As to `COc1ccc2c(c1)c(C(=O)C(=O)Nc1ccnc(OC)c1)c(C)n2Cc1ccc(C)cn1` [Compound 84, 2-(5-methoxy-2-methyl-1-((5-methylpyridin-2-yl)methyl)-1H-indol-3-yl)-N-(2-methoxypyridin-4-yl)-2-oxoacetamide], the inhibition at 600 s, 1 µM is < 25% and the inhibition at 600 s, 10 µM was < 25%.

With `COc1cc(NC(=O)C(=O)c2c(C)n(Cc3ccc(Cl)cn3)c3cc(F)c(C)cc23)ccn1` [Compound 90, 2-(1-((5-chloropyridin-2-yl)methyl)-6-fluoro-2,5-dimethyl-1H-indol-3-yl)-N-(2-methoxypyridin-4-yl)-2-oxoacetamide], the inhibition at 600 s, 1 µM was < 25% and the inhibition at 600 s, 10 µM is < 25%.

As for `COc1cc(NC(=O)C(=O)c2c(C)n(Cc3ccc(Cl)cn3)c3cc(Cl)c(C)cc23)ccn1` [Compound 94, 2-(6-chloro-1-((5-chloropyridin-2-yl)methyl)-2,5-dimethyl-1H-indol-3-yl)-N-(2-methoxypyridin-4-yl)-2-oxoacetamide], the inhibition at 600 s, 1 µM is < 25% and the inhibition at 600 s, 10 µM is < 25%.

Regarding `COc1ccc2c(c1)c(C(=O)C(=O)Nc1ccnc(OC)c1)c(C)n2Cc1ccc(Cl)cn1` [Compound 79, 2-(1-((5-chloropyridin-2-yl)methyl)-5-methoxy-2-methyl-1H-indol-3-yl)-N-(2-methoxypyridin-4-yl)-2-oxoacetamide], the inhibition at 600 s, 1 µM was < 25% and the inhibition at 600 s, 10 µM was < 25%.

`COc1ccc2c(c1)c(C(=O)C(=O)Nc1ccnc(OC)c1)c(C)n2Cc1cccnc1` [Compound 78, 2-(5-methoxy-2-methyl-1-(pyridin-3-ylmethyl)-1H-indol-3-yl)-N-(2-methoxypyridin-4-yl)-2-oxoacetamide]: the inhibition at 600 s, 1 µM was < 25% and the inhibition at 600 s, 10 µM fell in the range of 25 to 50%.

One may read the inhibition as the percentage by which the read-out fell short of the control.

(Values after US20150175599A1, “FAAH Inhibitors” (Ironwood Pharmaceuticals, Inc., priority 2010, published 2015).)
